CCCCCCCCCCC(CC)c1ccccc1 (configuration not stated)
logP: 8.65

CCCCCCC(CCCCC)c1ccccc1 (configuration not stated)
logP: 8.01

CCCCCCCCC(C)c1ccccc1 (configuration not stated)
logP: 7.06

CCCCCCCCC(CCCCC)c1ccccc1 (configuration not stated)
logP: 9.16

CCCCCCCCC(CC)c1ccccc1 (configuration not stated)
logP: 7.53

CCCCCCCCC(CCCC)c1ccccc1 (configuration not stated)
logP: 8.56

CCCCCCCCCC(CC)c1ccccc1 (configuration not stated)
logP: 8.1

CCCCCCCCCCC(CCC)c1ccccc1 (configuration not stated)
logP: 9.25

CCCCCC(CCCCC)c1ccccc1
logP: 7.45

CCCCCCCCCCCCC(C)c1ccccc1 (configuration not stated)
logP: 9.29

CCCCCCCCCCCCc1ccccc1
logP: 8.65

CCCCCCCCCCC(C)c1ccccc1 (configuration not stated)
logP: 8.19

CCCCCCCCCCCC(C)c1ccccc1 (configuration not stated)
logP: 8.77

CCCCCCCCCCCC(CC)c1ccccc1 (configuration not stated)
logP: 9.29

CCCCCCCCCC(CCC)c1ccccc1 (configuration not stated)
logP: 8.62

CCCCCCCC(CCCCC)c1ccccc1 (configuration not stated)
logP: 8.56

CCCCCCCCCC(CCCC)c1ccccc1 (configuration not stated)
logP: 9.16

CCCCCCCC(CCC)c1ccccc1 (configuration not stated)
logP: 7.59

CCCCCCCC(CCCC)c1ccccc1 (configuration not stated)
logP: 8.01

CCCCCC(CCCC)c1ccccc1 (configuration not stated)
logP: 6.9

CCCCCCCCCCCCCc1ccccc1
logP: 9.36

CCCCCCCCCC(C)c1ccccc1 (configuration not stated)
logP: 7.63

CCCCCCCC(CC)c1ccccc1 (configuration not stated)
logP: 7

CCCCCCCCCCCc1ccccc1
logP: 8.14

CCCCCCCCC(CCC)c1ccccc1 (configuration not stated)
logP: 8.07

CCCCCCC(CCC)c1ccccc1 (configuration not stated)
logP: 7

CCCCCCC(CCCC)c1ccccc1 (configuration not stated)
logP: 7.45

Reference: the OPERA property sets (Mansouri et al. 2018)
